Patent US6794380B2, “Amide derivatives” (AstraZeneca AB, priority 1999, dated 2004)

Legend:
[1] = target: T1, p38α (Homo sapiens, UniProt Q16539); assay: In vitro enzyme assay, p38α; format: biochemical; details: read-out: IC50 against p38α
T1 construct: c-myc (N); 6His (N); made in house; host or cells: E. coli (PET vectors)
Method: The ability of compounds of the invention to inhibit the enzyme p38 kinase was assessed. Activity of test compounds against each of the p38α and p38β isoforms of the enzyme was determined. […]
Test compounds were solubilised in DMSO and 10 μl of a 1:10 diluted sample in ‘Kinase Buffer’ was added to a well in a Microtiter plate. […] The precipitated protein was phosphorylated by p38 kinase and test compounds were assessed for their ability to inhibit this phosphorylation. The plates were filtered using a Canberra Packard Unifilter and washed with 2% TCA, dried overnight and counted on a Top Count scintillation counter.
Test compounds were tested initially at a single dose and active compounds were retested to allow IC50 values to be determined.

[2] = system: TNFα production in human whole blood; assay: Human Whole Blood test: inhibition of LPS-stimulated TNFα production; format: cell-based
Method: The ability of the compounds of this invention to inhibit TNFα production was also assessed in a human whole blood assay. Human whole blood secretes TNFα when stimulated with LPS. This property of blood forms the basis of an assay which is used as a secondary test for compounds which profile as active in the PBMC test.
Heparinised (10 units/ml) human blood was obtained from volunteers. 160 μl whole blood were added to 96 well round-bottom plates (Corning 25850). Compounds were solubilised and serially diluted in RPMI 1640 medium (Gibco) supplemented with 50 units/ml penicillin, 50 μg/ml streptomycin and 2 mM glutamine, as detailed above. 20 μl of each test concentration was added to appropriate wells (triplicate cultures). 20 μl of RPMI 1640 medium supplemented with antibiotics and glutamine was added to control wells. Plates were incubated for 30 minutes at 37° C. (humidified incubator), prior to addition of 20 μl LPS (final concentration 10 μg/ml). RPMI 1640 medium was added to control wells. Six “LPS alone” and four “medium alone” controls were included on each plate. A known TNFα synthesis/secretion inhibitor was included in each test. Plates were incubated for 6 hours at 37° C. (humidified incubator). […] TNFα levels were measured by ELISA (see WO92/10190 and Current Protocols in Molecular Biology, vol 2 by Frederick M. Ausbel et al., John Wiley and Sons Inc.). […]

T1 sequence (Q16539 whole entry): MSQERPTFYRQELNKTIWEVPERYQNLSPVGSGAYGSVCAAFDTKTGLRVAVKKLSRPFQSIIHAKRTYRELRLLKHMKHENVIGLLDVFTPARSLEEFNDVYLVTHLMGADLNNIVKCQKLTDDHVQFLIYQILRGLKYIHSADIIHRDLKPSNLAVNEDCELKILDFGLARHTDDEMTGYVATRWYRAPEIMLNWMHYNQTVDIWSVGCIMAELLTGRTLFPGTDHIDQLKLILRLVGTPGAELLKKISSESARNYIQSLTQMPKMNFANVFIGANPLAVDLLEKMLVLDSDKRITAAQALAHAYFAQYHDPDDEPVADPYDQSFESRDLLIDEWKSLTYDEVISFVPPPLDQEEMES

- IC50 [1]: ~50 nM
- IC50 [2]: ~5000 nM
Structure (SMILES): CN(C)CCCN(C)c1ccc(NC(=O)c2cc(NC(=O)c3ccnc(N4CCOCC4)c3)ccc2Cl)cn1 [N-{6-[N-(3-dimethylaminopropyl)-N-methylamino]pyrid-3-yl}-2-chloro-5-(2-morpholinopyrid-4-ylcarbonylamino)benzamide]
